Legend:
[1] = refractive index (Na D-line) (dimensionless); conditions: 101.33 kPa, Liquid, Standard Abbe refractometry
[2] = 101.33 kPa, Liquid; for speed of sound: Sing-around technique in a fixed-path interferometer; for mass density: Vibrating tube method; for viscosity: Capillary tube (Ostwald / Ubbelohde) method

COS(=O)(=O)[O-].C[n+]1ccccc1 [1-methylpyridinium methylsulfate]
Conditions | mass density, [2] [kg/m3] | refractive index, [1] | speed of sound, [2] [m/s] | viscosity, [2] [mPa·s]
293.15 K | 1348.22 | 1.51431 | 1888.6 | –
298.15 K | 1344.83 | 1.51296 | 1876.4 | 116.2
303.15 K | 1341.44 | 1.51162 | 1864.4 | 91
308.15 K | 1338.07 | 1.51029 | 1852.6 | 73.1
313.15 K | 1334.71 | 1.50895 | 1840.9 | 59.7
318.15 K | 1331.35 | 1.50764 | 1829.4 | 49.3
323.15 K | 1328.01 | 1.50629 | 1817.9 | 41.29
328.15 K | 1324.69 | 1.50497 | 1806.5 | 35.41
333.15 K | 1321.38 | 1.50361 | 1795.2 | 30.22
338.15 K | 1318.09 | 1.50226 | 1784 | 26.16
343.15 K | 1314.82 | 1.5009 | 1772.8 | 22.77

CCc1cccc[n+]1C.COS(=O)(=O)[O-] [2-ethyl-1-methylpyridinium methyl sulfate]
Conditions | mass density, [2] [kg/m3] | refractive index, [1] | speed of sound, [2] [m/s] | viscosity, [2] [mPa·s]
293.15 K | 1288.3 | 1.52031 | 1869.2 | –
298.15 K | 1284.7 | 1.51902 | 1856 | 4559
303.15 K | 1281.3 | 1.5177 | 1842.4 | 3207
308.15 K | 1277.9 | 1.5164 | 1830.5 | 2329
313.15 K | 1274.49 | 1.51508 | 1818.4 | 1728
318.15 K | 1271.15 | 1.51374 | 1806.5 | 1293
323.15 K | 1267.6 | 1.51245 | 1794.9 | 1012
328.15 K | 1264.5 | 1.51115 | 1783 | 802
333.15 K | 1261.3 | 1.50982 | 1770.2 | 646
338.15 K | 1258.1 | 1.50852 | 1758.5 | 528
343.15 K | 1254 | 1.50722 | 1747 | 437

Source: the NIST ThermoML archive (doi:10.1016/j.jct.2010.05.011)
